Laboratory results: US11369565B2, “Amino-pyrimidine skeletal muscle modulators” (Cytokinetics, Inc., priority 2010, dated 2022)

System: rabbit skeletal myofibrils (approximately 90% fast fibers)
Test: Activation of fast skeletal myofibrils (PUMA coupled-enzyme ATPase assay at pCa25)
Type: biochemical
Details: concentration at which the compound increased the enzymatic activity by 40%; calcium at pCa25; PM12 buffer pH 6.8
Protocol: Preparation of fast skeletal myofibrils. Rabbit skeletal myofibrils were prepared based upon the method of Herrmann et al. (Biochem. 32(28):7255-7263(1993). Myofibrils were prepared from rabbit psoas muscle purchased from Pel-Freez Biologicals (Arkansas) within 2 days of ordering, stored on ice. Minced muscle was homogenized in 10 volumes of ice-cold “standard” buffer (50 mM Tris, pH 7.4, 0.1 M potassium acetate, 5 mM KCl, 2 mM DTT, 0.2 mM PMSF, 10 μM leupeptin, 5 μM pepstatin, and 0.5 mM sodium azide) containing 5 mM EDTA and 0.5% Triton X-100 using an Omni-Macro homogenizer. Myofibrils were recovered by low speed centrifugation (3000 rpm for 10 minutes) and washed 2 times in the Triton X-100 containing buffer to ensure removal of cellular membrane. Following the Triton washes, myofibrils were washed 3 times in “standard” buffer containing 2 mM magnesium acetate. A final wash in assay buffer (12 mM PIPES, pH 6.8, 60 mM KCl, 1 mM DTT) was performed and brought to 10% sucrose for flash freezing in liquid nitrogen and storage at −80° C.
Activation of Fast Skeletal Myofibrils. Fast fiber activators were identified by measuring the enzymatic activity of muscle myofibril preparations using the proprietary PUMA™ (see, e.g., U.S. Pat. Nos. 6,410,254, 6,743,599, 7,202,051, and 7,378,254) assay system. Myofibril preparations consisted of rabbit skeletal muscle (approximately 90% fast fibers) that had been mechanically homogenized and washed with a detergent (triton X-100) to remove cellular membranes. This preparation retained all of the sarcomeric components in a native conformation and the enzymatic activity was still regulated by calcium. Compounds were tested using a myofibril suspension and a level of calcium sufficient to increase enzymatic activity of the myofibrils to 25% of their maximal rate (termed pCa25). Enzymatic activity was tracked via a pyruvate kinase and lactate dehydrogenase-coupled enzyme system. This assay regenerates myosin-produced ADP into ATP by oxidizing NADH, producing an absorbance change at 340 nm. The buffering system was 12 mM Pipes, 2 mM MgCl2, 1 mM DTT at pH 6.8 (PM12 buffer).

SMILES	Mean AC1.4
NC(=O)c1nc2cnc(NCC3(c4ncccc4F)CCC3)nc2s1 [5-({[(3-fluoro-2-pyridyl)cyclobutyl]methyl}amino)-1,3-thiazolo[5,4-d]pyrimidine-2-carboxamide]	C (C=10-20 uM)
CC(C)(Nc1ncc(-c2nc(C(=O)O)cs2)cn1)c1ncccc1Cl [2-(2-{[1-(3-chloro(2-pyridyl))-isopropyl]amino}pyrimidin-5-yl)-1,3-thiazole-4-carboxylic acid]	D (D=>20 uM)
CSc1ccccc1C(C)(C)Nc1ncc(-c2cccc(C#N)c2)cn1 [3-(2-{[1-methyl-1-(2-methylthiophenyl)ethyl]amino}pyrimidin-5-yl)benzenecarbonitrile]	A (A=<1 uM)
CC(C)(Nc1ncc(C2N=NN=N2)cn1)c1ncccc1Cl [(5-(5H-1,2,3,4-tetraazol-5-yl)pyrimidin-2-yl)[1-(3-chloro(2-pyridyl))-isopropyl]amine]	D (D=>20 uM)
NC(=O)c1cnc(-c2cnc(NCC3(c4ccccn4)CCC3)nc2)s1 [2-(2-{[(2-pyridylcyclobutyl)methyl]amino}pyrimidin-5-yl)-1,3-thlazole-5-carboxamide]	B (B=1-10 uM)
CC(C)(CNc1ncc2c(n1)CCN(C(=O)C(N)=O)C2)c1ccc(F)cc1 [2-(2-{[2-(4-fluorophenyl)-2-methylpropyl]amino}(5,6,7,8-tetrahydropyridino[4,3-d]pyrimidin-6-yl))-2-oxoacetamide]	D (D=>20 uM)
C[S+]([O-])c1ccc(C(C)(C)Nc2ncc(-c3cccc(C(N)=O)c3)cn2)cc1 (centres unmarked) [3-(2-(2-(4-(methylsulfinyl)phenyl)propan-2-ylamino)pyrimidin-5-yl)benzamide]	D (D=>20 uM)
CC(C)(CNc1ncc2c(n1)CN(S(C)(=O)=O)CC2)c1ccc(F)cc1 [2-{[2-(4-fluorophenyl)-2-methylpropyl]amino}-7-(methylsulfonyl)-5,6,7,8-tetrahydropyridino[3,4-d]pyrimidine]	C (C=10-20 uM)
CC(C)(Nc1ncc(-c2nc(C(N)=O)cs2)cn1)c1ncccc1F [2-(2-{[1-(3-fluoro(2-pyridyl))-isopropyl]amino}pyrimidin-5-yl)-1,3-thiazole-4-carboxamide]	D (D=>20 uM)
NC(=O)c1cccc(-c2cnc(NCC3(c4ccccn4)CCC3)nc2)c1 [3-(2-{[(2 pyridylcyclobutyl)methyl]amino}pyrimidin-5-yl)benzamide]	B (B=1-10 uM)
NC(=O)Cc1ccccc1-c1cnc(NC[C@]2(c3ncccc3F)C[C@H](F)C2)nc1 [2-{2-[2-({[3-fluoro-1-(3-fluoro(2-pyridyl))cyclobutyl)]methyl}amino)pyrimidin-5-yl]phenyl)acetamide]	C (C=10-20 uM)
CC(C)(O)c1cnn(-c2cnc(NC(C)(C)c3ncccc3Cl)nc2)c1 [2-[1-(2-{[1-(3-chloro(2-pyridyl))-isopropyl]amino}pyrimidin-5-yl)pyrazol-4-yl]propan-2-ol]	D (D=>20 uM)
CC(C)(Nc1ncc(-c2nc(C(N)=O)co2)cn1)c1ncccc1Cl [2-(2-{[1-(3-chloro(2-pyridyl))-isopropyl]amino}pyrimidin-5-yl)-1,3-oxazole-4-carboxamide]	D (D=>20 uM)
CC(C)(Nc1ncc(-c2cccc(C(N)=O)c2)cn1)c1ncccc1Cl [3-(2-{[1-(3-chloro(2-pyridyl))-isopropyl]amino}pyrimidin-5-yl)benzamide]	A (A=<1 uM)
CC(=O)N1CCc2nc(NCC(C)(C)c3ccc(F)cc3)ncc2C1 [6-acetyl-2-{[2-(4-fluorophenyl)-2-methylpropyl]amino}-5,6,7,8-tetrahydropyridino[4,3-d]pyrimidine]	D (D=>20 uM)
CC(C)(CNc1ncc2c(n1)CN(C(=O)C(N)=O)CC2)c1ccc(F)cc1 [2-(2-{[2-(4-fluorophenyl)-2-methylpropyl]amino}(5,6,7,8-tetrahydropyridino[3,4-d]pyrimidin-7-yl))-2-oxoacetamide]	D (D=>20 uM)
CC(C)(C)OC(=O)NCc1cnc(-c2cnc(NCC3(c4ccccn4)CCC3)nc2)s1 [(tert-butoxy)-N-{[2-(2-{[(2-pyridylcyclobutyl)methyl]amino}pyrimidin-5-yl)(1,3-thiazol-5-yl)]methyl}carboxamide]	B (B=1-10 uM)
CC(C)(CNc1ncc(-c2cccc(C(N)=O)c2)cn1)c1ncccc1F [3-(2-{[2-(3-fluoro(2-pyridyl))-2-methylpropyl]amino}pyrimidin-5-yl)benzamide]	B (B=1-10 uM)
CSc1cccnc1C(C)(C)Nc1ncc(-c2cccc(C(N)=O)c2)cn1 [3-(2-{[1-methyl-1-(3-methylthio(2-pyridyl))ethyl]amino}pyrimidin-5-yl)benzamide]	B (B=1-10 uM)
CC(C)(Nc1ncc(-c2cnc(C(N)=O)s2)cn1)c1ncccc1Cl [5-(2-{[1-(3-chloro(2-pyridyl))-isopropyl]amino}pyrimidin-5-yl)-1,3-thiazole-2-carboxamide]	B (B=1-10 uM)
CC(C)(Nc1ncc(-c2cn3cc(C(=O)O)ccc3n2)cn1)c1ncccc1Cl [2-(2-{[1-(3-chloro(2-pyridyl))-isopropyl]amino}pyrimidin-5-yl)-4-hydroimidazo[1,2-a]pyridine-6-carboxylic acid]	D (D=>20 uM)
Cc1nc(NC[C@]2(c3ncccc3F)C[C@H](F)C2)ncc1-c1ccc(C(N)=O)cc1 [4-[2-({[3-fluoro-1-(3-fluoro(2-pyridyl))cyclobutyl]methyl}amino)-4-methylpyrimidin-5-yl]benzamide]	D (D=>20 uM)
NC(=O)c1ccc(O)c(-c2cnc(NCC3(c4ncccc4F)CCC3)nc2)c1 [3-[2-({[(3-fluoro(2-pyridyl))cyclobutyl]methyl}amino)pyrimidin-5-yl]-4-hydroxybenzamide]	A (A=<1 uM)
O=C(O)c1nc2cnc(NCC3(c4ncccc4F)CCC3)nc2s1 [5-({[(3-fluoro-2-pyridyl)cyclobutyl]methyl}amino)-1,3-thiazolo[5,4-d]pyrimidine-2-carboxylic acid]	D (D=>20 uM)

The remaining lines, values ahead:

Mean AC1.4	SMILES
D (D=>20 uM)	CN(C)c1nc(NC[C@]2(c3ncccc3F)C[C@H](F)C2)ncc1-c1ccccc1 [[2-({[3-fluoro-1-(3-fluoro(2-pyridyl))cyclobutyl]methyl}amino-5-phenylpyrimidin-4-yl]dimethylamine]
D (D=>20 uM)	CC(C)(Nc1ncc(Br)cn1)c1ncccc1F [(5-bromopyrimidin-2-yl)[1-(3-fluoro(2-pyridyl))-isopropyl]amine]
D (D=>20 uM)	CCOC(=O)c1cnn(-c2cnc(NCC3(c4ncccc4F)CCC3)nc2)c1 [ethyl 1-[2-({[(3-fluoro-2-pyridyl)cyclobutyl]methyl}amino)pyrimidin-5-yl] pyrazole-4-carboxylate]
B (B=1-10 uM)	CC(C)(Nc1ncc(-c2nccs2)cn1)c1ncccc1Cl [[1-(3-chloro(2-pyridyl))-isopropyl](5-(1,3-thiazol-2-yl)pyrimidin-2-yl)amine]
C (C=10-20 uM)	O=C(Nc1ccn[nH]1)c1cnc(NCC2(c3ncccc3F)CCC2)nc1 [[2-({[(3-fluoro(2-pyridyl))cyclobutyl]methyl}amino)pyrimidin-5-yl]-N-pyrazol-5-ylcarboxamide]
D (D=>20 uM)	Cc1cnc(N)nc1-c1cnc(NC[C@]2(c3ncccc3F)C[C@H](F)C2)nc1 [[5-(2-amino-5-methylpyrimidin-4-yl)pyrimidin-2-yl]{[3-fluoro-1-(3-fluoro(2-pyridyl))cyclobutyl]methyl}amine]
D (D=>20 uM)	CCOC(=O)c1csc(-c2cnc(NCC3(c4ncccc4F)CCC3)nc2)n1 [ethyl 2-[2-({[(3-fluoro-2-pyridyl)cyclobutyl]methyl}amino)pyrimidin-5-yl]-1,3-thiazole-4-carboxylate]
D (D=>20 uM)	CNC(=O)c1cnc(NCC2(c3ncccc3F)CCC2)nc1 [[2-({[(3-fluoro(2-pyridyl))cyclobutyl]methyl}amino)pyrimidin-5-yl]-N-methylcarboxamide]
C (C=10-20 uM)	CC(=O)NCc1cnc(-c2cnc(NC(C)(C)c3ncccc3Cl)nc2)s1 [N-{[2-(2-{[1-(3-chloro(2-pyridyl))-isopropyl]amino)}pyrimidin-5-yl)-1,3-thiazol-5-yl]methyl]acetamide]
D (D=>20 uM)	CC(C)(Nc1ncccn1)c1ncccc1Cl [[1-(3-chloro(2-pyridyl))-isopropyl]pyrimidin-2-ylamine]
D (D=>20 uM)	CC(C)(Nc1ncc(-c2nc(CNC(=O)[C@H]3CCCN3)cs2)cn1)c1ncccc1F [((2R)pyrrolidin-2-yl)-N-{[2-(2-{[1-(3-fluoro(2-pyridyl))-isopropyl]amino}pyrimidin-5-yl)(1,3-thiazo-4-yl)]methyl}carboxamide]
